{
  "source": "patent US8361968B2",
  "about": "(Takeda Pharmaceutical Company Limited, priority 2002, dated 2013)",
  "key": {"hOT7T175 [1]": {"molecular_target": "T1, hOT7T175 (Homo sapiens, UniProt Q969F8, L364H)", "T1 sequence (Q969F8 whole entry L364H)": "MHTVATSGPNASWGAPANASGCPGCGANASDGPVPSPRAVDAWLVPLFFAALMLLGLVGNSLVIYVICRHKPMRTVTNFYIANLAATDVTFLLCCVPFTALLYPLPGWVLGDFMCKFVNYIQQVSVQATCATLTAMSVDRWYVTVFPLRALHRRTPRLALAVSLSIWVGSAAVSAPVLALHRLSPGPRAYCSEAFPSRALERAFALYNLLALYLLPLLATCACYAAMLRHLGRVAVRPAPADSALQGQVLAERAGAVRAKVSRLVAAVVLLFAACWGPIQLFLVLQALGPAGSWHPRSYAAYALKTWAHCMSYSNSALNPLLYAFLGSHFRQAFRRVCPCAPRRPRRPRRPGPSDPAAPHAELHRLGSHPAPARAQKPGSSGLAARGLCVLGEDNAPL", "assay": "hOT7T175 receptor binding activity: binding inhibition of Cy-5-labeled metastin (40-54) on hOT7T175-expressed CHO cells", "parameters": "expressed in transfected cells; host or cells: CHO cells", "procedure": "Assay for hOT7T175 Receptor Binding Activity\nh0T7T175-Expressed CHO cells were cultured in MEM-cc medium (nucleic acid-free) containing 10% dialyzed serum. The medium was removed and the adherent cells were washed with PBS. Then, PBS containing 5 mM EDTA was added and the cells were scraped from a flask with a cell scraper. […] To each well of a 96-Well Black Clear Bottom Plate (Applied Biosystems, Inc.), 10 μL of assay buffer containing 1% dimethylsulfoxide was added to examine total binding, 10 μL of 10 μM non-labeled peptide (having the same amino acid sequence as that of the labeled one) solution diluted with assay buffer to examine non-specific binding, and 10 μL of a test compound diluted with assay buffer to examine the binding inhibition activity of the test compound, respectively. Furthermore, 90 μL each of the cell suspension was dispensed to each well. […] The specific binding is a value obtained by subtracting the non-specific binding from the total binding."}, "hOT7T175 [2]": {"molecular_target": "T1, hOT7T175", "assay": "Intracellular Ca ion level-increasing activity using FLIPR in hOT7T175/CHO", "assay_type": "cell-based", "parameters": "expressed in transfected cells; host or cells: CHO/dhfr- cells, obtained from ATCC", "settings": "relative, Metastin (1-54) = 1"}},
  "note": "Peptide text beside a SMILES is read from it.",
  "data": [
    {"smiles": "COc1ccc(C[C@H](NC(=O)[C@H](CCCNC(=N)N)NC(=O)[C@H](CC(C)C)NC(=O)CNC(=O)[C@H](Cc2ccccc2)NC(=O)[C@H](CO)NC(=O)[C@H](CC(N)=O)NC(=O)[C@H](Cc2c[nH]c3ccccc23)NC(=O)[C@H](CC(N)=O)NC(=O)[C@@H](N)Cc2ccc(O)cc2)C(N)=O)cc1", "note": "[Compound No. 18] (H-YNWNSFGLRY(Me)-NH2)", "values": [
      {"measurement": "IC50", "setting": "hOT7T175 [1]", "result": 7.7, "unit": "nM"},
      {"measurement": "Specific Activity (intracellular Ca ion level-increasing activity)", "setting": "hOT7T175 [2]", "result": 1}
    ]},
    {"smiles": "CC(C)C[C@H](NC(=O)CNC(=O)[C@H](Cc1ccccc1)NC(=O)[C@H](CO)NC(=O)[C@H](CC(N)=O)NC(=O)[C@H](Cc1c[nH]c2ccccc12)NC(=O)[C@H](CC(N)=O)NC(=O)[C@H](Cc1ccc(O)cc1)NC(=O)[C@H](CC(N)=O)NC(=O)[C@@H]1CCCN1C(=O)[C@@H](N)CC(C)C)C(=O)N[C@@H](CCCNC(=N)N)C(=O)N[C@@H](Cc1ccccc1)C(N)=O", "note": "[Compound No. 32, reference compound]", "values": [
      {"measurement": "IC50", "setting": "hOT7T175 [1]", "result": 25, "unit": "nM"},
      {"measurement": "Specific Activity (intracellular Ca ion level-increasing activity)", "setting": "hOT7T175 [2]", "result": 10}
    ]},
    {"smiles": "CC(C)C[C@H](NC(=O)[C@H](C)NC(=O)[C@H](Cc1ccccc1)NC(=O)[C@H](CO)NC(=O)[C@H](CC(N)=O)NC(=O)[C@H](Cc1c[nH]c2ccccc12)NC(=O)[C@H](CC(N)=O)NC(=O)[C@@H](N)Cc1ccc(O)cc1)C(=O)N[C@@H](CCCNC(=N)N)C(=O)N[C@@H](Cc1ccccc1)C(N)=O", "note": "[Compound No. 50] (H-YNWNSFALRF-NH2)", "values": [
      {"measurement": "IC50", "setting": "hOT7T175 [1]", "result": 190, "unit": "nM"},
      {"measurement": "Specific Activity (intracellular Ca ion level-increasing activity)", "setting": "hOT7T175 [2]", "result": 30}
    ]},
    {"smiles": "CC(C)C[C@H](NC(=O)CNC(=O)[C@H](Cc1ccccc1)NC(=O)[C@H](CO)NC(=O)[C@H](CC(N)=O)NC(=O)[C@H](Cc1c[nH]c2ccccc12)NC(=O)[C@H](CC(N)=O)NC(=O)[C@@H](N)CC(=O)O)C(=O)N[C@@H](CCCNC(=N)N)C(=O)N[C@@H](Cc1ccccc1)C(N)=O", "note": "[Compound No. 75] (H-DNWNSFGLRF-NH2)", "values": [
      {"measurement": "IC50", "setting": "hOT7T175 [1]", "result": 880, "unit": "nM"},
      {"measurement": "Specific Activity (intracellular Ca ion level-increasing activity)", "setting": "hOT7T175 [2]", "result": 1}
    ]},
    {"smiles": "CC(C)C[C@H](NC(=O)CNC(=O)[C@H](Cc1ccccc1)NC(=O)[C@H](CO)NC(=O)[C@H](CC(N)=O)NC(=O)[C@H](Cc1cn(C=O)c2ccccc12)NC(=O)[C@H](CC(N)=O)NC(=O)[C@@H](N)Cc1ccc(O)cc1)C(=O)N[C@@H](CCCNC(=N)N)C(=O)N[C@@H](Cc1ccc(C#N)cc1)C(N)=O", "note": "[Compound No. 78, Tyr-Asn-Trp(For)-Asn-Ser-Phe-Gly-Leu-Arg-Phe(4CN)-NH2]", "values": [
      {"measurement": "IC50", "setting": "hOT7T175 [1]", "result": 25, "unit": "nM"},
      {"measurement": "Specific Activity (intracellular Ca ion level-increasing activity)", "setting": "hOT7T175 [2]", "result": 10}
    ]},
    {"smiles": "CC(C)C[C@H](NC(=O)CNC(=O)[C@H](Cc1ccccc1)NC(=O)[C@H](CO)NC(=O)[C@H](CC(N)=O)NC(=O)[C@H](Cc1c[nH]c2ccccc12)NC(=O)[C@H](CC(N)=O)NC(=O)[C@@H](N)Cc1ccc(O)cc1)C(=O)N[C@@H](CCCCNC(=N)N)C(=O)N[C@@H](Cc1ccccc1)C(N)=O", "note": "[Compound No. 97]", "values": [
      {"measurement": "IC50", "setting": "hOT7T175 [1]", "result": 370, "unit": "nM"},
      {"measurement": "Specific Activity (intracellular Ca ion level-increasing activity)", "setting": "hOT7T175 [2]", "result": 10}
    ]},
    {"smiles": "CC(C)C[C@H](NC(=O)[C@H](CO)NC(=O)[C@H](Cc1ccccc1)NC(=O)[C@H](CO)NC(=O)[C@H](CC(N)=O)NC(=O)[C@H](Cc1c[nH]c2ccccc12)NC(=O)[C@H](CC(N)=O)NC(=O)[C@@H](N)Cc1ccc(O)cc1)C(=O)N[C@@H](CCCNC(=N)N)C(=O)N[C@@H](Cc1ccccc1)C(N)=O", "note": "[Compound No. 101] (H-YNWNSFSLRF-NH2)", "values": [
      {"measurement": "IC50", "setting": "hOT7T175 [1]", "result": 100, "unit": "nM"},
      {"measurement": "Specific Activity (intracellular Ca ion level-increasing activity)", "setting": "hOT7T175 [2]", "result": 10}
    ]},
    {"smiles": "CCCC[C@H](NC(=O)CNC(=O)[C@H](Cc1ccccc1)NC(=O)[C@H](CO)NC(=O)[C@H](CC(N)=O)NC(=O)[C@H](Cc1c[nH]c2ccccc12)NC(=O)[C@H](CC(N)=O)NC(=O)[C@@H](N)Cc1ccc(O)cc1)C(=O)N[C@@H](CCCNC(=N)N)C(=O)N[C@@H](Cc1ccccc1)C(N)=O", "note": "[Compound No. 105, Tyr-Asn-Trp-Asn-Ser-Phe-Gly-Nle-Arg-Phe-NH2]", "values": [
      {"measurement": "IC50", "setting": "hOT7T175 [1]", "result": 880, "unit": "nM"},
      {"measurement": "Specific Activity (intracellular Ca ion level-increasing activity)", "setting": "hOT7T175 [2]", "result": 1}
    ]}
  ]
}
